The text below walks through data of patent publication US8790678B2, “Biomaterials having nanoscale layers and coatings” (Washington University, priority 2006, dated 2014).

Series [1] deals with HUVEC. Kind of series: Scrape wound migration assay in platelet poor plasma or low serum medium. The series is classed as cell-based, human. The note with it: for number of cells in the scrape wound versus plasma alone: no flow. As for the experimental part:
The plasma was passed through a 0.22 μm PVDF syringe filter. Plasma was aliquoted and stored at −20° C. VEGF concentration was measured with a sandwich ELISA kit (Quantikine Human VEGF kit, R&D Systems, Minneapolis, Minn.). The concentration of VEGF was measured in plasma samples from three different donors.
After rinsing with D-PBS, LSM or plasma containing the appropriate stimulants were added to the cells. […] Cells were manually counted using ImagePro Express software (Media Cybernetics, Silver Spring, Md.).
A 2.54 cm diameter Teflon disk was mounted onto the spindle of each motor so that the bottom of the disk was 0.5 cm above the cell monolayer. A total volume of 6 mL of medium was added per well. The motors were driven using a 1.5 V power source resulting in a rotation rate of 150±5 rad/s. […] Cell densities were counted at four locations, each between 0.8 and 1.2 cm away from the center of the well.

Another series has as its system S1P1 mRNA. Kind of series: Quantitative real time RT-PCR of S1P1 mRNA. The series is classed as cell-based, human. Conditions: 10 ng/mL VEGF; HUVEC cultured in plasma; 24 h. The text has this:
Quantitative Real Time Reverse Transcription PCR-In experiments with fluid flow, cell lysates were harvested only in the region of relevant shear stress (0.8-1.2 cm from the center of the well). For conditions without fluid flow, cell lysates were collected from the entire well. Total cell RNA was isolated using an RNeasy kit (Qiagen). Amplification of an 81-bp fragment of S1P1 using primers (5'-[…] NO:7] and 5'-[…] Inc, Coralville, Iowa) and probe (S1P1 Probe: [NT] ID NO:9], IDT Inc) was performed using the Quantitect qRT-PCR kit (Qiagen). The amount of S1P1 or β-Actin RNA was quantified by comparing data to a standard curve generated using the Taqman human endogenous β-actin control kit (Applied Biosystems). The β-actin control kit contains 333 copies of β-actin DNA per ng of total RNA. Knockdown of S1P1 with siRNA-Passage 3 HUVEC at 30-50% confluence were transfected with 100 nM siRNA targeting S1P1 (Silencer validated siRNA against S1P1, Ambion, Austin, Tex.) in antibiotic-free growth medium using Lipofectamine-2000 (Invitrogen). […] At 48 h, cells were incubated with LSM for 12 h. A negative control (Ambion, Silencer Negative Control #2) was used to test for non-specific effects on gene expression or cell survival. Quantitative real-time RT-PCR was used to determine the extent of S1P1 receptor mRNA knockdown 48 h after transfection.

For series [2], the system named is chorioallantoic membrane (CAM). In words: Chick chorioallantoic membrane (CAM) angiogenesis assay. The series is classed as in vivo, chicken. Conditions: 50 ng spotted on Thermanox coverslip, two days. As to the method:
Embryonated chicken eggs were incubated blunt-end up in a 37° C. incubator. At embryonal day 6, the top of the egg was cracked and removed using tweezers to create a 1.5 cm diameter opening. The inner shell membrane was removed, exposing the CAM. A 20 μL PEG hydrogel was then placed onto the CAM. As controls, 50 ng bFGF or 50 ng S1P were spotted onto small pieces of Thermanox coverslips (Nunc), air dried and placed onto the CAM. The eggs were sealed with parafilm and returned to the incubator. After two days of incubation, the eggs were reopened and the degree of angiogenesis was visually assessed.

Series [3] has as its system HUVEC. In words: Time-lapse microscopy of endothelial cell migration on PEG-OVS/albumin/RGD hydrogels. It is filed as cell-based, human. As for the experimental part: Time-lapse microscopy was used to quantify endothelial cell migration speeds on PEGOVS/albumin hydrogels containing RGD peptide and preloaded with S1P. RGD peptide was added to the PEG hydrogels to promote endothelial cell adhesion and spreading on the materials. PEG-OVS (3.4 mg in 20 μL) was reacted for 30 min with acetyl-GCGYGRGDSPG-NH2 peptide [SEQ ID NO. 5], to attach the peptide to 1/20 of the vinyl sulfone groups (2.78 mM RGD peptide in the final hydrogel). The PEG hydrogels were crosslinked by reacting PEG-OVS with albumin (5.2 mg in 30 μL) premixed with S1P (5 nmol) to give a final concentration of 100 μM S1P within the crosslinked hydrogel. The resulting solution (50 μL) was pipetted into a 24-well plate and incubated at 37° C. for 24 h to allow crosslinking. HUVEC from passage 5-7 were seeded onto the gels at a concentration of 1000 cells/cm^2. After allowing the cells to spread for 6 h in complete growth medium, HEPES-buffered low serum medium (MCDB 131 with 0.1% FBS, 1% ABAM, […] HEPES, pH 7.4) containing 0.4% FAF-BSA was added to the cells. The cells were tracked using time-lapse microscopy for 12 h, recording images every two minutes. Individual cell migration speeds were analyzed manually using ImageJ to trace the path of each cell over time. […]

Series [4] relates to Human aortic endothelial cells. Kind of series: Single cell tracking on RGD/PEG-OVS/albumin hydrogels under fluid shear stress. It is filed as cell-based. The note with it: for endothelial cell migration speed: 100 nM S1P. As to the method: Human aortic endothelial cells seeded onto RGD/PEG-OVS/albumin hydrogels at 1000-2000 cells/cm^2 were tracked under 20 dynes/cm^2 fluid shear stress in HEPES-buffered low serum medium (HEPES-LSM; MCDB 131 with 0.1% FBS, 1% ABAM, […] HEPES, pH 7.4) containing 0.4% FAF-BSA for 12 h.
Time lapse microscopy images were obtained every 2 min for 12 h of endothelial cell migration on the surface of RGD containing PEG hydrogels. The percent of cells remaining on the gels during the course of the experiment was recorded for each RGD concentration. The projected cell areas of all cells were determined by manually outlining the cells after 3 h under 20 dyne/cm^2 shear stress. Single endothelial cells were manually tracked for 12 h to obtain XY-coordinate data for the center of each cell. Coordinate data from every six minutes (Δt=6 min) for all cells in each experiment were saved as variables for analysis in MATLAB (The MathWorks, Natick, Mass.). At each time point i, ti=iΔt, the mean squared displacement was calculated using the overlapping interval method. The speed of each individual was calculated by dividing the root mean-square displacement for a single time interval by the tracking interval (6 min). Each cell's persistence time was determined by fitting the persistent random walk model given by Equation 1: <d^2(t)>=2S^2P[t−P(1−e^−t/P)] [1] using the calculated speed by nonlinear least squares regression analysis as previously described (Dunn 1983; Othmer, Dunbar and Alt 1988; Harms et al. 2005). Speed simply represents the total path length of a cell over time. Persistence time represents the time period between changes in the direction of movement of more than 60°. Path length is calculated as the product of speed and persistence time. Cell dispersion is the product of speed squared and persistence time. Cell areas were obtained by manually tracing cells. All data was analyzed by ANOVA Scheffe post hoc. Endothelial Response to Linear RGD Concentration—Cell Attachment Strength

A further series concerns HAEC. Kind of series: Individual cell migration of HAEC in plasma. The series is classed as cell-based, human. As to the method:
Individual Cell Migration of HAEC—Passage 6 HAEC were subcultured and incubated in growth medium for 3 days and then were serum-starved for 12 h. HAEC cell densities were less than 100 cell/mm^2 so that cell-cell contacts were unlikely during the duration of the experiment. Any cell that contacted another cell was excluded from data analysis. Plasma was buffered with 20 mM HEPES, pH 7.4, and added to the well. Time-lapse microscopy was used to track the cells every 4 min for 12 h with a 10× objective. The migration speed of individual cells was analyzed using ImageJ software (NIH).

In another series the target is S1P1 (Homo sapiens, UniProt P21453). Conditions: Lee et al., Science (1998); read-out: KD for S1P/S1P1 binding; cited from earlier work.
Chain of S1P1 (P21453 whole entry, species assumed): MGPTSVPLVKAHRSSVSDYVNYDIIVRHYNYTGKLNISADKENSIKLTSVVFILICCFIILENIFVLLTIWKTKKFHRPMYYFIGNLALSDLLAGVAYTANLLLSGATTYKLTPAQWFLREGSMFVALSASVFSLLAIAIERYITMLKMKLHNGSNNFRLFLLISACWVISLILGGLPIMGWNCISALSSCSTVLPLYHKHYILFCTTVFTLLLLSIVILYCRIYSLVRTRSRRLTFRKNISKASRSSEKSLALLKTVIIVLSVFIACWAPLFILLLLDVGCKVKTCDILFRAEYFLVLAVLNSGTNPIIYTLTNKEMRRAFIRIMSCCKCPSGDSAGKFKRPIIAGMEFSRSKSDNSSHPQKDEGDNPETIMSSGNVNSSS
Another series relates to plasma lipoproteins. Conditions: in blood; cited from earlier work.
Setting [5] is: S1P 100 nM or VEGF 10 ng/mL added to plasma.
[6] abbreviates: S1P at 0.69 mM cyclic RGD vs 0.52 and 1.38 mM cyclic RGD without S1P.
The mark [7] stands for this setting: addition of 100 nM S1P, linear RGD.

Several values for one entry are separate records, joined by “and”; a condition that tells them apart may be missing. Identical values can stand only once.

In the case of VEGF, in the series on HUVEC [1] (setting [5]), the “number of cells in the scrape wound versus plasma alone” value is “no differences”. Also, in the series with S1P1 mRNA, the “S1P1 mRNA concentration versus plasma alone” value is recorded as “statistically significant increase”.
Turning to `CCCCCCCCCCCCC/C=C/[C@@H](O)[C@@H](N)COP(=O)(O)O` [S1P, Sphingosine 1-phosphate], the angiogenic response result in series [2] is reported as “strong angiogenic responses”. The “mean migration speed of HUVEC” value turned out to be 43.8±15.7 μm/h in the series with HUVEC [3] (S1P delivered from preloaded PEG/albumin/RGD hydrogel (100 μM S1P in gel), without S1P 19.2±10.1) and 30.2±11.8 μm/h in the series on HUVEC [3] (culture medium containing 100 nM S1P, on PEG/albumin/RGD hydrogel). In addition, the persistence time entry is on record as “not significantly changed” in series [4] (100 nM S1P compared to no S1P, cyclic RGD) and “not clearly affected” in series [4] (setting [7]). The “endothelial cell migration speed” value in series [4] (cyclic RGD hydrogels, particularly higher concentrations) was “significant increase in endothelial cell migration speed”; in series [4] (highest linear RGD concentrations), “more than doubled”. Besides, the projected cell area result in series [4] (S1P addition, cyclic RGD, after 3 h of shear stress) is “No clear effect”. For the same compound, the cell dispersion result in series [4] (setting [6]) is reported as “statistically greater”; in series [4] (setting [7]) it was “not significant”. For the same compound, the path length entry in series [4] (setting [6]) was “statistically greater”; in series [4] (setting [7]), “not significant”. Further, in the series with HUVEC [1] (0, 200, 500, and 1000 nM exogenous S1P at each time point), the “cell densities outside the scrape wound area between S1P levels” value was “no significant differences”. Also, in the series on HUVEC [1] (100 nM S1P in LSM, 24 h), the “number of endothelial cells in a scrape wound versus LSM alone” value was “increased the number of endothelial cells”. Besides, the “number of cells in the scrape wound” value with HUVEC [1] (100 nM S1P in plasma, fluid flow) is on record as “did not significantly increase”. The “number of cells in the scrape wound versus plasma alone” value in the series with HUVEC [1] (200 nM and 500 nM exogenous S1P, plasma, 24 h) is “statistically different from plasma alone”; with HUVEC [1] (200 nM exogenous S1P, plasma, 48 h), “significantly higher than plasma alone”; in the series on HUVEC [1] (setting [5]), “no differences”. Besides, the “migration into the wound area versus plasma alone” value in the series on HUVEC [1] (200 nM exogenous S1P, fluid flow, 48 h) is “significantly different from plasma alone”. Moreover, in the series on HUVEC [1] (1000 nM exogenous S1P in static culture), the “cell density outside the scrape wound at 48 h versus 0 and 24 h” value is given as “significantly lower cell density”. The “number of cells in the wound area versus plasma alone” value in the series with HUVEC [1] (200, 500, or 1000 nM S1P in plasma, fluid flow, 24 h) is recorded as “significant increases”. Moreover, in the series on HUVEC [1] (plasma, without fluid flow, 100, 200, 500, 1000 nM tested), the “exogenous S1P concentration with the highest number of cells within the scrape wound” value was determined as 200 nM. Further, the “mean cell speed versus plasma alone” value with HAEC (100 nM S1P added to static plasma) was “no difference”; with HAEC (500 and 1000 nM exogenous S1P), “did not lead to a significant increase”; in the series on HAEC (S1P in plasma increased by 200 nM, p=0.023) it was “significantly increased”. On S1P1, the Kd was ~8 nM and 8 nM. In addition, the “circulating S1P bound by HDL” value in the series with plasma lipoproteins was “about 55%”. The “circulating S1P bound by other lipoproteins” value with plasma lipoproteins was “about 10%”.
